# Experimental data taken from patent publication US8846933B2, “N-link hydroxamic acid derivatives useful as antibacterial agents” (Pfizer Inc., priority 2009, dated 2014).
# Key:
# [1] = system: Pseudomonas aeruginosa UI-18: Wild-type (PA-7); assay: MIC determination (CLSI), strain PA-7; assay type: cell-based; settings: strain PA-7, unit assumed
# In short: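 MIC determined by broth dilution per CLSI M7-A7 guidelines with M100-S18 interpretive standards. Test organism: wild-type Pseudomonas aeruginosa UI-18, designated PA-7.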
# [2] = system: Escherichia coli EC-1: VOGEL, mouse virulent; assay: MIC determination (CLSI), strain EC-1; assay type: cell-based; settings: strain EC-1, unit assumed
# In short: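 The mouse-virulent VOGEL isolate of E. coli, EC-1, served as test organism. Minimum inhibitory concentration was measured by CLSI dilution methodology (M7-A7; M100-S18 standards).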
# [3] = generated in the same manner as in Table 4
Compound,PA-7 (MIC) [1],EC-1 (MIC) [2],"PA-7 (MIC) [1, 3]","EC-1 (MIC) [2, 3]"
"C[C@@](CCn1ccc(-c2ccc3cc(OCCO)ccc3c2)cc1=O)(C(=O)NO)S(C)(=O)=O [Example 314, (2R)-N-hydroxy-4-{4-[6-(2-hydroxyethoxy)-2-naphthyl]-2-oxopyridin-1(2H)-yl}-2-methyl-2-(methylsulfonyl)butanamide]",1 µg/mL,0.5 µg/mL,–,–
"C[C@@](CCn1ccc(-c2ccc(-c3ccno3)cc2)cc1=O)(C(=O)NO)S(C)(=O)=O [Example 411, (2R)-N-hydroxy-4-[4-(4-isoxazol-5-ylphenyl)-2-oxopyridin-1(2H)-yl]-2-methyl-2-(methylsulfonyl)butanamide]",0.5 µg/mL,0.5 µg/mL,–,–
"CC(CCn1ccc(-c2ccc(F)cc2Cl)cc1=O)(C(=O)NO)S(C)(=O)=O (centres unmarked) [Example 155, 4-[4-(2-chloro-4-fluorophenyl)-2-oxopyridin-1(2H)-yl]-N-hydroxy-2-methyl-2-(methylsulfonyl)butanamide]",–,–,0.5 µg/mL,4 µg/mL
"CC(CCn1ccc(-c2cccc(O)c2)cc1=O)(C(=O)NO)S(C)(=O)=O (centres unmarked) [Example 210, N-hydroxy-4-[4-(3-hydroxyphenyl)-2-oxopyridin-1(2H)-yl]-2-methyl-2-(methylsulfonyl)butanamide]",> 64 µg/mL,> 64 µg/mL,–,–
"CC(CCn1ccc(-c2ccc(OCCCN3CCOCC3)cc2)cc1=O)(C(=O)NO)S(C)(=O)=O (centres unmarked) [Example 71, N-hydroxy-2-methyl-2-(methylsulfonyl)-4-{4-[4-(3-morpholin-4-ylpropoxy)phenyl]-2-oxopyridin-1(2H)-yl}butanamide]",–,–,4 µg/mL,2 µg/mL
CC(CCn1ccc(-c2ccc(OCCCc3cccnc3)cc2)cc1=O)(C(=O)NO)S(C)(=O)=O (centres unmarked) [Example 88],–,–,2 µg/mL,0.25 µg/mL
"Cc1nccn1-c1ccc(-c2ccn(CC[C@](C)(C(=O)NO)S(C)(=O)=O)c(=O)c2)cc1 [Example 368, (2R)-N-hydroxy-2-methyl-4-{4-[4-(2-methyl-1H-imidazol-1-yl)phenyl]-2-oxopyridin-1(2H)-yl}-2-(methylsulfonyl)butanamide]",16 µg/mL,> 64 µg/mL,–,–
"CC(CCn1ccc(-c2ccc(Cl)c(C#N)c2)cc1=O)(C(=O)NO)S(C)(=O)=O (centres unmarked) [Example 135, 4-[4-(4-chloro-3-cyanophenyl)-2-oxopyridin-1(2H)-yl]-N-hydroxy-2-methyl-2-(methylsulfonyl)butanamide]",–,–,16 µg/mL,16 µg/mL
"CC(CCn1ccc(-c2ccc3cnccc3c2)cc1=O)(C(=O)NO)S(C)(=O)=O (centres unmarked) [Example 260, N-hydroxy-4-(4-isoquinolin-6-yl-2-oxopyridin-1(2H)-yl)-2-methyl-2-(methylsulfonyl)butanamide]",4 µg/mL,4 µg/mL,–,–
"CC(CCn1ccc(-c2ccc(OCCCN3CCOCC3)c(Cl)c2)cc1=O)(C(=O)NO)S(C)(=O)=O (centres unmarked) [Example 221, 4-{4-[3-chloro-4-(3-morpholin-4-ylpropoxy)phenyl]-2-oxopyridin-1(2H)-yl}-N-hydroxy-2-methyl-2-(methylsulfonyl)butanamide]",8 µg/mL,2 µg/mL,–,–
"CC(CCn1ccc(-c2cncc3ccccc23)cc1=O)(C(=O)NO)S(C)(=O)=O (centres unmarked) [Example 109, N-hydroxy-4-(4-isoquinolin-4-yl-2-oxopyridin-1(2H)-yl)-2-methyl-2-(methylsulfonyl)butanamide]",–,–,> 64 µg/mL,> 64 µg/mL
"COc1ccc(F)cc1-c1ccn(CCC(C)(C(=O)NO)S(C)(=O)=O)c(=O)c1 (centres unmarked) [Example 173, 4-[4-(5-fluoro-2-methoxyphenyl)-2-oxopyridin-1(2H)-yl]-N-hydroxy-2-methyl-2-(methylsulfonyl)butanamide]",–,–,64 µg/mL,64 µg/mL
"C[C@@](CCn1ccc(-c2ccc(-c3ccccn3)cc2)cc1=O)(C(=O)NO)S(C)(=O)=O [Example 374, (2R)-N-hydroxy-2-methyl-2-(methylsulfonyl)-4-[2-oxo-4-(4-pyridin-2-ylphenyl)pyridin-1(2H)-yl]butanamide]",1 µg/mL,0.25 µg/mL,–,–
"CC(CCn1ccc(-c2ccc(OCc3ccccn3)cc2)cc1=O)(C(=O)NO)S(C)(=O)=O (centres unmarked) [Example 270, N-hydroxy-2-methyl-2-(methylsulfonyl)-4-{2-oxo-4-[4-(pyridin-2-ylmethoxy)phenyl]pyridin-1(2H)-yl}butanamide]",2 µg/mL,1 µg/mL,–,–
"CC(CCn1ccc(-c2ccc(OCCCCS(N)(=O)=O)cc2Cl)cc1=O)(C(=O)NO)S(C)(=O)=O (centres unmarked) [Example 276, 4-[4-{4-[4-(aminosulfonyl)butoxy]-2-chlorophenyl}-2-oxopyridin-1(2H)-yl]-N-hydroxy-2-methyl-2-(methylsulfonyl)butanamide]",32 µg/mL,16 µg/mL,–,–
"CC(CCn1ccc(-c2ccc(C3CCCCC3)cc2)cc1=O)(C(=O)NO)S(C)(=O)=O (centres unmarked) [Example 119, 4-[4-(4-cyclohexylphenyl)-2-oxopyridin-1(2H)-yl]-N-hydroxy-2-methyl-2-(methylsulfonyl)butanamide]",–,–,16 µg/mL,0.5 µg/mL

Compound,PA-7 (MIC) [1],EC-1 (MIC) [2],"PA-7 (MIC) [1, 3]","EC-1 (MIC) [2, 3]"
"C[C@@](CCn1ccc(-c2ccc(OCCC(O)CO)cc2)cc1=O)(C(=O)NO)S(C)(=O)=O (stereo partly drawn) [Example 366, (2R)-4-{4-[4-(3,4-dihydroxybutoxy)phenyl]-2-oxopyridin-1(2H)-yl}-N-hydroxy-2-methyl-2-(methylsulfonyl)butanamide]",16 µg/mL,16 µg/mL,–,–
"CCN(CC)C(=O)c1ccc(-c2ccn(CCC(C)(C(=O)NO)S(C)(=O)=O)c(=O)c2)cc1 (centres unmarked) [Example 126, N,N-diethyl-4-{1-[4-(hydroxyamino)-3-methyl-3-(methylsulfonyl)-4-oxobutyl]-2-oxo-1,2-dihydropyridin-4-yl}benzamide]",–,–,> 64 µg/mL,> 64 µg/mL
"CN1Cc2ccc(-c3ccn(CCC(C)(C(=O)NO)S(C)(=O)=O)c(=O)c3)cc2C1=O (centres unmarked) [Example 162, N-hydroxy-2-methyl-4-[4-(2-methyl-3-oxo-2,3-dihydro-1H-isoindol-5-yl)-2-oxopyridin-1(2H)-yl]-2-(methylsulfonyl)butanamide]",–,–,> 64 µg/mL,> 64 µg/mL
C[C@@](CCn1ccc(-c2ccc(-c3cncnc3)cc2)cc1=O)(C(=O)NO)S(C)(=O)=O [Example 423],4 µg/mL,1 µg/mL,–,–
"CC(CCn1ccc(-c2ccc(S(N)(=O)=O)cc2)cc1=O)(C(=O)NO)S(C)(=O)=O (centres unmarked) [Example 230, 4-{4-[4-(aminosulfonyl)phenyl]-2-oxopyridin-1(2H)-yl}-N-hydroxy-2-methyl-2-(methylsulfonyl)butanamide]",> 64 µg/mL,64 µg/mL,–,–
"C[C@@](CCn1ccc(-c2ccc(-c3cc(CO)no3)cc2)cc1=O)(C(=O)NO)S(C)(=O)=O [Example 408, (2R)-N-hydroxy-4-[4-{4-[3-(hydroxymethyl)isoxazol-5-yl]phenyl}-2-oxopyridin-1(2H)-yl]-2-methyl-2-(methylsulfonyl)butanamide]",8 µg/mL,8 µg/mL,–,–
"C[C@@](CCn1ccc(-c2ccc(OCCN3CCOCC3)c(Cl)c2Cl)cc1=O)(C(=O)NO)S(C)(=O)=O [Example 304, (2R)-4-{4-[2,3-dichloro-4-(2-morpholin-4-ylethoxy)phenyl]-2-oxopyridin-1(2H)-yl}-N-hydroxy-2-methyl-2-(methylsulfonyl)butanamide]",16 µg/mL,4 µg/mL,–,–
C[C@@](CCn1ccc(-c2ccc(C(F)(F)F)nc2)cc1=O)(C(=O)NO)S(C)(=O)=O [Example 331],32 µg/mL,0.25 µg/mL,–,–
"COC1(c2ccc(-c3ccn(CC[C@](C)(C(=O)NO)S(C)(=O)=O)c(=O)c3)cc2)CCC1 [Example 352, (2R)-N-hydroxy-4-{4-[4-(1-methoxycyclobutyl)phenyl]-2-oxopyridin-1(2H)-yl}-2-methyl-2-(methylsulfonyl)butanamide]",8 µg/mL,2 µg/mL,–,–
C[C@@](CCn1ccc(-c2ccc(Oc3nc4ccccc4s3)cc2)cc1=O)(C(=O)NO)S(C)(=O)=O [Example 445],4 µg/mL,0.25 µg/mL,–,–
"C[C@@](CCn1ccc(-c2ccc(-c3cnco3)cc2)cc1=O)(C(=O)NO)S(C)(=O)=O [Example 340, (2R)-N-hydroxy-2-methyl-2-(methylsulfonyl)-4-{4-[4-(1,3-oxazol-5-yl)phenyl]-2-oxopyridin-1(2H)-yl}butanamide]",1 µg/mL,0.25 µg/mL,–,–
"C[C@@](CCn1ccc(-c2ccc(OC[C@H]3CC[C@@H](O)CC3)c(F)c2)cc1=O)(C(=O)NO)S(C)(=O)=O [Example 348, (2R)-4-[4-{3-fluoro-4-[(cis-4-hydroxycyclohexyl)methoxy]phenyl}-2-oxopyridin-1(2H)-yl]-N-hydroxy-2-methyl-2-(methylsulfonyl)butanamide]",1 µg/mL,0.25 µg/mL,–,–
"Cc1ccc(-c2ccc(-c3ccn(CC[C@](C)(C(=O)NO)S(C)(=O)=O)c(=O)c3)cc2)cn1 [Example 456, (2R)-N-hydroxy-2-methyl-4-{4-[4-(6-methylpyridin-3-yl)phenyl]-2-oxopyridin-1(2H)-yl}-2-(methylsulfonyl)butanamide]",1 µg/mL,0.25 µg/mL,–,–
"CC(CCn1ccc(-c2cc(F)c(F)c(F)c2)cc1=O)(C(=O)NO)S(C)(=O)=O (centres unmarked) [Example 130, N-hydroxy-2-methyl-2-(methylsulfonyl)-4-[2-oxo-4-(3,4,5-trifluorophenyl)pyridin-1(2H)-yl]butanamide]",–,–,8 µg/mL,16 µg/mL
"CCOc1ccc(-c2ccn(CC[C@](C)(C(=O)NO)S(C)(=O)=O)c(=O)c2)cc1 [Example 332, (2R)-4-[4-(4-ethoxyphenyl)-2-oxopyridin-1(2H)-yl]-N-hydroxy-2-methyl-2-(methylsulfonyl)butanamide]",0.5 µg/mL,64 µg/mL,–,–
